US20230089867A1, “CYCLIC PENTAMER COMPOUNDS AS PROPROTEIN CONVERTASE SUBTILISIN/KEXIN TYPE 9 (PCSK9) INHIBITORS FOR THE TREATMENT OF METABOLIC DISORDER” (Novartis AG, priority 2018, published 2023)

Target: human PCSK9 (Homo sapiens, UniProt Q8NBP7)
Test: PCSK9 ligand binding TR-FRET assay (interference with binding of human PCSK9 to human LDLR)
Settings: for Max % inhibition: PCSK9 FRET assay, efficacy (Amax), 100% = 1 uM unlabeled human PCSK9, 0% = DMSO; for IC50: TR-FRET, human PCSK9 Alexa Fluor 647 / human LDLR extracellular domain-Europium Kryptate, read-out: PCSK9 FRET Assay IC50
Experimental: The PCSK9 binding of the compounds of the disclosure were measured using a time resolved fluorescence resonance energy transfer (TR-FRET) assay. This time resolved fluorescence resonance energy transfer (TR-FRET) assay measures the ability of a compound of the present disclosure to interfere with the binding of human PCSK9 to human LDLR, providing measures of both potency (IC50) and efficacy (Amax).
These solutions were pipetted into columns 1 and 11 of the compound plate. Threefold serial dilutions were generated in columns 2-10 and 12-20 of the compound plate by transferring 10 uL into 20 uL of DMSO. Columns 21 and 22 of the compound plate were negative controls containing DMSO alone.
An intermediate plate was generated in a Greiner V bottom plate by transferring 8 uL from each well of the master plate into a corresponding well containing 92 uL of assay buffer and mixing thoroughly.
A Proxi plate-low volume assay plate was used for the assay. […] For the positive control wells in columns 23 and 24 of the plate, 5 uL of unlabeled human PCSK9 was added at 4 uM in assay buffer containing 8% DMSO. Following a 30 minute incubation, 5 uL of 4 nM Human LDLR extracellular domain-Europium Kryptate was added and the mixture was incubated for an additional 2 hours.
The FRET ratio (FRET/Europium) was used for calculations.
Data is expressed as percent inhibition: (value−0%)/(100%−0%).

human PCSK9, sequence (Q8NBP7 153-692): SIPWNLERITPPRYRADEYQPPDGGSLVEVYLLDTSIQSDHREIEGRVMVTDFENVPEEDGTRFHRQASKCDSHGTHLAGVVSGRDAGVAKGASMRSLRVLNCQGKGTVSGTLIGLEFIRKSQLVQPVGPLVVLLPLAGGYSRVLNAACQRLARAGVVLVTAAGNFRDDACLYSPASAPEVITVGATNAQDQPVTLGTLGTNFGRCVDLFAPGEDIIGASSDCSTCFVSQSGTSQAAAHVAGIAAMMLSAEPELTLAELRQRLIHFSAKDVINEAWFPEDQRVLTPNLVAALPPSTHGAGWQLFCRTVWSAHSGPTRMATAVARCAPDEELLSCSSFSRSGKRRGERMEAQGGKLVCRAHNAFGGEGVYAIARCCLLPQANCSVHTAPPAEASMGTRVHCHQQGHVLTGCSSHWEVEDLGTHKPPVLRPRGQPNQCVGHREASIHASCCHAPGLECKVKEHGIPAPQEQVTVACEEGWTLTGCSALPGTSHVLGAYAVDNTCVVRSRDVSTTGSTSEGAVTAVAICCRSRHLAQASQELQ
human PCSK9, sequence (Q8NBP7 31-152 partner limits assumed): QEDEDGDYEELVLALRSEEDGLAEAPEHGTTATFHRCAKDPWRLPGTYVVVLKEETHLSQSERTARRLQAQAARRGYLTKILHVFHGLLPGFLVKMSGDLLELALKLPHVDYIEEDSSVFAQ

Max % inhibition [%]	IC50 [nM]	SMILES
79.36	52.4	COC[C@@H]1NC(=O)[C@H](C)N(Cc2ccc(Cl)cc2Oc2ccc(-c3cnc(CN4CCCC4)n3C)cc2)C(=O)C[C@@H](Cc2ccccc2)C(=O)N(C)[C@@H](C)CNC(=O)C[C@H](Cc2ccc(Cl)cc2)NC1=O [Compound 256, (2S,5S,8S,13S,16R)-16-benzyl-1-(4-chloro-2-(4-(1-methyl-2-(pyrrolidin-1-ylmethyl)-1H-imidazol-5-yl)phenoxy)benzyl)-8-(4-chlorobenzyl)-5-(methoxymethyl)-2,13,14-trimethyl-1,4,7,11,14-pentaazacyclooctadecane-3,6,10,15,18-pentaone]
52.60	2.9	COC[C@@H]1NC(=O)[C@H](C)N(Cc2ccc(Cl)cc2Oc2ccc(-c3cnc(CN4CCCC4)n3CCF)cc2)C(=O)C[C@@H](Cc2ccccc2)C(=O)N(C)[C@@H](C)CNC(=O)C[C@H](Cc2ccc(Cl)cc2)N(C)C1=O [Compound 303, (2S,5S,8S,13S,16R)-16-benzyl-1-(4-chloro-2-(4-(1-(2-fluoroethyl)-2-(pyrrolidin-1-ylmethyl)-1H-imidazol-5-yl)phenoxy)benzyl)-8-(4-chlorobenzyl)-5-(methoxymethyl)-2,7,13,14-tetramethyl-1,4,7,11,14-pentaazacyclooctadecane-3,6,10,15,18-pentaone]
97.43	33.2	COC[C@@H]1NC(=O)[C@H](C)N(Cc2ncccc2Oc2ccc(-c3cnc(CN(C)C)n3C)cc2)C(=O)C[C@@H](Cc2ccccc2)C(=O)N(C)[C@@H](C)CNC(=O)C[C@H](Cc2ccc(Cl)cc2)N(C)C1=O [Compound 214, (2S,5S,8S,13S,16R)-16-benzyl-8-(4-chlorobenzyl)-1-((3-(4-(2-((dimethylamino)methyl)-1-methyl-1H-imidazol-5-yl)phenoxy)pyridin-2-yl)methyl)-5-(methoxymethyl)-2,7,13,14-tetramethyl-1,4,7,11,14-pentaazacyclooctadecane-3,6,10,15,18-pentaone]
87.05	24.1	COC[C@@H]1NC(=O)[C@@H](CCN(C)C)N(Cc2ccc(Cl)cc2Oc2ccc(-c3cnc(CN(C)C)n3C)cc2)C(=O)C[C@@H](Cc2ccccc2)C(=O)N(C)[C@H]2CCCC[C@@H]2NC(=O)C[C@H](Cc2ccc(Cl)cc2)N(C)C1=O [Compound 288, (4S,7S,10R,14R,16aS,20aS)-14-benzyl-11-(4-chloro-2-(4-(2-((dimethylamino)methyl)-1-methyl-1H-imidazol-5-yl)phenoxy)benzyl)-4-(4-chlorobenzyl)-10-(2-(dimethylamino)ethyl)-7-(methoxymethyl)-5,16-dimethylhexadecahydrobenzo[l][1,4,7,11,14]pentaazacyclooctadecine-2,6,9,12,15(3H)-pentaone]
98.86	33.2	COC[C@@H]1NC(=O)[C@H](C)N(Cc2ccc(Cl)cc2Oc2ccc(-c3cnc(CN(C)C)n3C)cc2)C(=O)C[C@@H](Cc2ccccc2)C(=O)N(C)[C@H]2C[C@H]2NC(=O)C[C@H](Cc2ccc(Cl)cc2)N(C)C1=O [Compound 247, (1R,5S,8S,11S,15R,18S)-15-benzyl-12-(4-chloro-2-(4-(2-((dimethylamino)methyl)-1-methyl-1H-imidazol-5-yl)phenoxy)benzyl)-5-(4-chlorobenzyl)-8-(methoxymethyl)-6,11,17-trimethyI-2,6,9,12,17-pentaazabicyclo[16.1.0]nonadecane-3,7,10,13,16-pentaone]

Second part, the compound before the results:

SMILES	Max % inhibition [%]	IC50 [nM]
COC[C@@H]1NC(=O)[C@H](C)N(Cc2ccc(Cl)cc2Oc2ccc(-c3cnc(CN(C)C)n3C)cc2)C(=O)C[C@@H](Cc2ccccc2)C(=O)N(C)C[C@H](C)NC(=O)C[C@H](Cc2ccc(Cl)cc2)N(C)C1=O [Compound 32, (2S,5S,8S,12S,16R)-16-benzyl-1-(4-chloro-2-(4-(2-((dimethylamino)methyl)-1-methyl-1H-imidazol-5-yl)phenoxy)benzyl)-8-(4-chlorobenzyl)-5-(methoxymethyl)-2,7,12,14-tetramethyl-1,4,7,11,14-pentaazacyclooctadecane-3,6,10,15,18-pentaone]	103.15	1.8
COC[C@@H]1NC(=O)[C@H](C)N(Cc2ccc(Oc3ccc(-c4cnc(CN(C)C)n4C)cc3)cc2F)C(=O)C[C@@H](Cc2ccccc2)C(=O)N(C)C2CCCCC2NC(=O)C[C@H](Cc2ccc(Cl)cc2)N(C)C1=O (stereo in doubt) [Compound 15, (4S,7S,10S,14R,16aS,20aS)-14-benzyl-4-(4-chlorobenzyl)-11-(4-(4-(2-((dimethylamino)methyl)-1-methyl-1H-imidazol-5-yl)phenoxy)-2-fluorobenzyl)-7-(methoxymethyl)-5,10,16-trimethylhexadecahydrobenzo[l][1,4,7,11,14]pentaazacyclooctadecine-2,6,9,12,15(3H)-pentaone]	48.77	331
COC[C@@H]1NC(=O)[C@H](C)N(Cc2c(C)cccc2Oc2ccc(-c3cnc(CN(C)C)n3C)cc2)C(=O)C[C@@H](Cc2ccccc2)C(=O)N(C)[C@@H](C)CNC(=O)C[C@H](Cc2ccc(Cl)cc2)N(C)C1=O [Compound 88, (2S,5S,8S,13S,16R)-16-benzyl-8-(4-chlorobenzyl)-1-(2-(4-(2-((dimethylamino)methyl)-1-methyl-1H-imidazol-5-yl)phenoxy)-6-methylbenzyl)-5-(methoxymethyl)-2,7,13,14-tetramethyl-1,4,7,11,14-pentaazacyclooctadecane-3,6,10,15,18-pentaone]	90.30	40.1
COC[C@@H]1NC(=O)[C@H](C)N(Cc2ccc(Cl)cc2Oc2ccc(-c3cnc(CN4CCCC4)n3C)c(F)c2)C(=O)C[C@@H](Cc2ccccc2)C(=O)N(C)[C@@H](C)CNC(=O)C[C@H](Cc2ccc(Cl)cc2)N(C)C1=O [Compound 72, (2S,5S,8S,13S,16R)-16-benzyl-1-(4-chloro-2-(3-fluoro-4-(1-methyl-2-(pyrrolidin-1-ylmethyl)-1H-imidazol-5-yl)phenoxy)benzyl)-8-(4-chlorobenzyl)-5-(methoxymethyl)-2,7,13,14-tetramethyl-1,4,7,11,14-pentaazacyclooctadecane-3,6,10,15,18-pentaone]	92.57	0.5
C[C@H]1CNC(=O)C[C@H](Cc2ccc(Cl)cc2)N(C)C(=O)[C@H](CO)NC(=O)[C@H](C)N(Cc2ccc(Cl)cc2Oc2ccc3c(c2)C(=O)N(C2CCN(C)CC2)C3)C(=O)C[C@@H](Cc2ccccc2)C(=O)N1C [Compound 130, (2S,5S,8S,13S,16R)-16-benzyl-1-(4-chloro-2-((2-(1-methylpiperidin-4-yl)-3-oxoisoindolin-5-yl)oxy)benzyl)-8-(4-chlorobenzyl)-5-(hydroxymethyl)-2,7,13,14-tetramethyl-1,4,7,11,14-pentaazacyclooctadecane-3,6,10,15,18-pentaone]	77.42	20.3
COC[C@@H]1NC(=O)[C@H](C)N(Cc2ccc(Cl)cc2Oc2ccc(-c3cnc(CN(C)C)n3C)cc2)C(=O)C[C@@H](CC2CCCCC2)C(=O)N(C)[C@@H](C)CNC(=O)C[C@H](Cc2ccc(Cl)cc2)N(C)C1=O [Compound 183, (2S,5S,8S,13S,16R)-1-(4-chloro-2-(4-(2-((dimethylamino)methyl)-1-methyl-1H-imidazol-5-yl)phenoxy)benzyl)-8-(4-chlorobenzyl)-16-(cyclohexylmethyl)-5-(methoxymethyl)-2,7,13,14-tetramethyl-1,4,7,11,14-pentaazacyclooctadecane-3,6,10,15,18-pentaone]	81.31	11.2
C[C@H]1CNC(=O)C[C@H](Cc2ccc(Cl)cc2)N(C)C(=O)[C@H](Cc2nnn[nH]2)NC(=O)[C@H](C)N(Cc2ccc(Cl)cc2Oc2ccc(-c3cnc(CN(C)C)n3C)cc2)C(=O)C[C@@H](Cc2ccccc2)C(=O)N1C [Compound 148, (2S,5S,8S,13S,16R)-5-((1H-tetrazol-5-yl)methyl)-16-benzyl-1-(4-chloro-2-(4-(2-((dimethylamino)methyl)-1-methyl-1H-imidazol-5-yl)phenoxy)benzyl)-8-(4-chlorobenzyl)-2,7,13,14-tetramethyl-1,4,7,11,14-pentaazacyclooctadecane-3,6,10,15,18-pentaone]	94.67	29.2
COCC(=O)N1CCn2c(nnc2-c2ccc(Oc3cc(Cl)ccc3CN3C(=O)C[C@@H](Cc4ccccc4)C(=O)N(C)[C@@H](C)CNC(=O)C[C@H](Cc4ccc(Cl)cc4)N(C)C(=O)[C@H](COC)NC(=O)[C@@H]3C)cc2)C1 [Compound 116, (2S,5S,8S,13S,16R)-16-benzyl-1-(4-chloro-2-(4-(7-(2-methoxyacetyl)-5,6,7,8-tetrahydro-[1,2,4]triazolo[4,3-a]pyrazin-3-yl)phenoxy)benzyl)-8-(4-chlorobenzyl)-5-(methoxymethyl)-2,7,13,14-tetramethyl-1,4,7,11,14-pentaazacyclooctadecane-3,6,10,15,18-pentaone]	59.45	4.8
